Data taken from patent US20190070140A1, “COMPOSITION COMPRISING PROTECTIN DX AS ACTIVE INGREDIENT FOR PREVENTING OR TREATING HYPERLIPIDEMIA OR FATTY LIVER DISEASE” (Solvit P&F, priority 2017, published 2019).

Tests used:
SREBP1, FAS and SCD1 = assay: Western-blot assay of adipogenesis-related genes in livers of HFD mice; assay type: in vivo, mouse; conditions: PDX i.p. 1 μg/mice/day for 8 weeks, vs HFD, FIG. 5B
Procedure: The present study has received the approval of the Institutional Animal Review Committee (Institutional Animal Care and Use Committee in Korea University, Seoul, Korea). The animal experiment was conducted according to the Guide for Care and Use of Laboratory Animals (NH publication, 8th Ed., 2011). A control group and a group of male C57BL/6J(B6) mice at 8 weeks of age were subjected to a normal diet (ND, Brogaarden, Gentofte, Denmark) and a high fat diet (HFD, Research Diets, New Brunswick, N.J., USA) for 8 weeks, respectively. The HFD (high fat diet) group was provided with intra-peritoneal injection of PDX for 8 weeks (1 μg/mice/day). An ethanol injection group was used as a control group. […] A protein sample (35 μg) was applied to 12% SDS-PAGE, transferred to a nitrocellulose film (Amersham Bioscience, Westborough, Mass., USA), detected with a primary antibody, followed by probing with a secondary antibody and another secondary antibody conjugated with horseradish […] (Santa Cruz Biotechnology). The sample was detected by ECL kit. The present inventors have assessed PDX effects upon lipid accumulation in a mouse. For this purpose, a liver cut section from a mouse was subjected to histological assay and western-blot assay through H&E staining and Oil-Red-O staining, while TG accumulation was measured using a TG analysis kit.

adiponectin = assay: Adiponectin level in blood serum of HFD mice; assay type: in vivo, mouse; conditions: PDX i.p. 1 μg/mice/day for 8 weeks, FIG. 5E
Procedure: The present study has received the approval of the Institutional Animal Review Committee (Institutional Animal Care and Use Committee in Korea University, Seoul, Korea). The animal experiment was conducted according to the Guide for Care and Use of Laboratory Animals (NH publication, 8th Ed., 2011). A control group and a group of male C57BL/6J(B6) mice at 8 weeks of age were subjected to a normal diet (ND, Brogaarden, Gentofte, Denmark) and a high fat diet (HFD, Research Diets, New Brunswick, N.J., USA) for 8 weeks, respectively. The HFD (high fat diet) group was provided with intra-peritoneal injection of PDX for 8 weeks (1 μg/mice/day). An ethanol injection group was used as a control group.

CC/C=C\C[C@H](O)/C=C/C=C\C=C\[C@@H](O)C/C=C\C/C=C\CCC(=O)O [PDX, 10S,17S-dihydroxy-docosa-4Z,7Z,11E,13Z,15E,19Z-hexaeonic acid]
expression of adipogenesis-related genes SREBP1, FAS and SCD1 in the liver (SREBP1, FAS and SCD1): significantly reduced | level of adiponectin in blood serum (adiponectin): increased
